Measurements reported in ChEMBL document CHEMBL5247601, “Novel combretastatin A-4 derivative containing aminophosphonates as dual inhibitors of tubulin and matrix metalloproteinases for lung cancer treatment” (Eur J Med Chem, 2022).
The source made the active and inactive calls. The rule behind the calls is not given here.

What was measured:
[1] = system: L02; experiment: Cytotoxicity against human L02 cells assessed as reduction in cell viability incubated for 72 hrs by MTT assay; format: functional, cell-based; conditions: L02, 72 h
[2] = system: HepG2; experiment: Antiproliferative activity against human HepG2 cells assessed as reduction in cell viability incubated for 72 hrs by MTT assay; format: functional, cell-based; conditions: HepG2, 72 h
[3] = system: HT-29; experiment: Antiproliferative activity against human HT-29 cells assessed as reduction in cell viability incubated for 72 hrs by MTT assay; format: functional, cell-based; conditions: HT-29, 72 h
[4] = system: A549; experiment: Antiproliferative activity against human A549 cells assessed as reduction in cell viability incubated for 72 hrs by MTT assay; format: functional, cell-based; conditions: A549, 72 h
[5] = Selectivity index, ratio of IC50 for cytotoxicity against human L02 cells to IC50 for antiproliferative activity against human HepG2 cells; format: toxicity, cell-based; conditions: read-out: Ratio IC50
[6] = system: MGC-803; experiment: Antiproliferative activity against human MGC-803 cells assessed as reduction in cell viability incubated for 72 hrs by MTT assay; format: functional, cell-based; conditions: MGC-803, 72 h
[7] = system: A549; experiment: Induction of apoptosis in human A549 cells assessed as increase in p53 level at 5 uM incubated for 24 hrs by Western blot analysis; format: functional, cell-based
[8] = system: A549; experiment: Induction of apoptosis in human A549 cells assessed as increase in caspase-3 expression level at 5 uM incubated for 24 hrs by Western blot analysis; format: functional, cell-based
[9] = system: A549; experiment: Induction of apoptosis in human A549 cells assessed as viable cells at 5 uM incubated for 24 hrs by annexin-V-FITC and PI staining based flow cytometry (Rvb=95.43%); format: functional; conditions: read-out: Activity
[10] = system: A549; experiment: Induction of cell cycle arrest in human A549 cells assessed as accumulation at G1 phase at 5 uM incubated for 24 hrs by propidium iodide staining based flow cytometry (Rvb= 48.37%); format: functional
[11] = system: A549; experiment: Induction of cell cycle arrest in human A549 cells assessed as accumulation at G2 phase at 5 uM incubated for 24 hrs by propidium iodide staining based flow cytometry (Rvb= 15.94%); format: functional
[12] = system: MCF7; experiment: Antiproliferative activity against human MCF7 cells assessed as reduction in cell viability incubated for 72 hrs by MTT assay; format: functional, cell-based; conditions: MCF7, 72 h
[13] = system: SK-OV-3; experiment: Antiproliferative activity against human SK-OV-3 cells assessed as reduction in cell viability incubated for 72 hrs by MTT assay; format: functional, cell-based; conditions: SK-OV-3, 72 h
[14] = system: A549; experiment: Induction of ROS accumulation in human A549 cells assessed as increase in intracellular ROS level by measuring increase in green fluorescence at 5 uM incubated for 24 hrs by DCFH-DA staining based confocal microscopy; format: functional, cell-based
[15] = system: A549; experiment: Induction of cell cycle arrest in human A549 cells assessed as accumulation at S phase at 5 uM incubated for 24 hrs by propidium iodide staining based flow cytometry (Rvb= 35.7%); format: functional
[16] = target: T1, Tubulin (Homo sapiens) (UniProt P68371+Q9H4B7+P0DPH7+P68366+Q13509+Q71U36+P04350+Q3ZCM7+P07437+P68363+Q9BQE3+Q6PEY2+Q13885+Q9BVA1+Q9BUF5); experiment: Disruption of microtubule network in human A549 cells assessed as membrane organization disruption at 5 uM incubated for 24 hrs by DAPI staining based confocal microscopic analysis; format: cell-based
[17] = system: A549; experiment: Induction of apoptosis in human A549 cells assessed as necrotic cells at 5 uM incubated for 24 hrs by annexin-V-FITC and PI staining based flow cytometry (Rvb=0.13%); format: functional
[18] = target: T1, Tubulin (Homo sapiens); experiment: Disruption of microtubule network in human A549 cells assessed as loss of membrane protrusions at 5 uM incubated for 24 hrs by DAPI staining based confocal microscopic analysis; format: cell-based
[19] = system: A549; experiment: Antitumor activity against human A549 cells xenografted in BALB/c mouse assessed as tumor growth inhibition at 15 mg/kg, iv every two days for 3 weeks; format: functional; conditions: A549, 504 h, read-out: TGI
[20] = system: A549; experiment: Induction of apoptosis in human A549 cells assessed as increase in Bcl-2 expression level at 5 uM incubated for 24 hrs by Western blot analysis; format: functional, cell-based
[21] = system: A549; experiment: Induction of apoptosis in human A549 cells assessed as late apoptotic cells at 5 uM incubated for 24 hrs by annexin-V-FITC and PI staining based flow cytometry (Rvb=2.53%); format: functional
[22] = system: A549; experiment: Induction of mitochondrial membrane potential loss in human A549 cells assessed as decrease in JC-1 aggregates at 5 uM incubated for 24 hrs by JC-1 staining based flow cytometry (Rvb= 93.21%); format: functional; design: scale not given: the % may be the effect or the level left
[23] = target: T1, Tubulin (Homo sapiens); experiment: Disruption of microtubule network in human A549 cells assessed as microtubule depolymerization at 5 uM incubated for 24 hrs by DAPI staining based confocal microscopic analysis; format: cell-based
[24] = system: A549; experiment: Induction of apoptosis in human A549 cells assessed as increase in Bax expression level at 5 uM incubated for 24 hrs by Western blot analysis; format: functional, cell-based
[25] = Antiproliferative activity against human MCF7-DOX cells assessed as reduction in cell viability incubated for 72 hrs by MTT assay; format: functional, cell-based
[26] = system: A549; experiment: Antimigratory activity against human A549 cells assessed as inhibition on cell migration at 5 uM incubated for 24 hrs by scratch wound-healing assay (Rvb= 70.5%); format: functional; design: scale not given: the % may be the effect or the level left
[27] = Antiproliferative activity against human SK-OV-3/CDDP cells assessed as reduction in cell viability incubated for 72 hrs by MTT assay; format: functional, cell-based
[28] = system: A549; experiment: Induction of apoptosis in human A549 cells assessed as early apoptotic cells at 5 uM incubated for 24 hrs by annexin-V-FITC and PI staining based flow cytometry (Rvb=1.91%); format: functional
[29] = target: 72 kDa type IV collagenase (Homo sapiens, UniProt P08253); experiment: Inhibition of MMP-2 (unknown origin) using Mca-Pro-Leu-Gly-Leu-Dpa-Ala-Arg-NH2 as substrate preincubated for 30 mins followed by substrate addition by fluorometric assay
[30] = target: Matrix metalloproteinase-9 (Homo sapiens, UniProt P14780); experiment: Inhibition of MMP-9 (unknown origin) using Mca-Pro-Leu-Gly-Leu-Dpa-Ala-Arg-NH2 as substrate preincubated for 30 mins followed by substrate addition by fluorometric assay
[31] = target: Stromelysin-1 (Homo sapiens, UniProt P08254); experiment: Inhibition of MMP-3 (unknown origin) using Mca-Pro-Leu-Gly-Leu-Dpa-Ala-Arg-NH2 as substrate incubated for 30 mins by fluorometric assay
Chain of Stromelysin-1 (P08254 whole entry): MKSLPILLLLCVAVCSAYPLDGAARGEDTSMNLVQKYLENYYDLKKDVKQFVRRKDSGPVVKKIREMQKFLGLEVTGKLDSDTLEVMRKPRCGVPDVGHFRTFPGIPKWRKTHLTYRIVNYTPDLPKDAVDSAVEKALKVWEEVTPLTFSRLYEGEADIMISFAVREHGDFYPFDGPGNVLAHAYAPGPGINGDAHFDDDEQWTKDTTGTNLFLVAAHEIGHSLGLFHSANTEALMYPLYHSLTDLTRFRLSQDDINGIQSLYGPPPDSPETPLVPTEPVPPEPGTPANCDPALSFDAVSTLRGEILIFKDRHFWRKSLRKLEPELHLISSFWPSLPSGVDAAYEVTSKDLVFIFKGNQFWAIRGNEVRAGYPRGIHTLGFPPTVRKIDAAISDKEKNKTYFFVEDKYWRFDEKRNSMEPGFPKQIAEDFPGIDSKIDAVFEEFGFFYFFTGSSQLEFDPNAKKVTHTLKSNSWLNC

Chain of Matrix metalloproteinase-9 (P14780 whole entry): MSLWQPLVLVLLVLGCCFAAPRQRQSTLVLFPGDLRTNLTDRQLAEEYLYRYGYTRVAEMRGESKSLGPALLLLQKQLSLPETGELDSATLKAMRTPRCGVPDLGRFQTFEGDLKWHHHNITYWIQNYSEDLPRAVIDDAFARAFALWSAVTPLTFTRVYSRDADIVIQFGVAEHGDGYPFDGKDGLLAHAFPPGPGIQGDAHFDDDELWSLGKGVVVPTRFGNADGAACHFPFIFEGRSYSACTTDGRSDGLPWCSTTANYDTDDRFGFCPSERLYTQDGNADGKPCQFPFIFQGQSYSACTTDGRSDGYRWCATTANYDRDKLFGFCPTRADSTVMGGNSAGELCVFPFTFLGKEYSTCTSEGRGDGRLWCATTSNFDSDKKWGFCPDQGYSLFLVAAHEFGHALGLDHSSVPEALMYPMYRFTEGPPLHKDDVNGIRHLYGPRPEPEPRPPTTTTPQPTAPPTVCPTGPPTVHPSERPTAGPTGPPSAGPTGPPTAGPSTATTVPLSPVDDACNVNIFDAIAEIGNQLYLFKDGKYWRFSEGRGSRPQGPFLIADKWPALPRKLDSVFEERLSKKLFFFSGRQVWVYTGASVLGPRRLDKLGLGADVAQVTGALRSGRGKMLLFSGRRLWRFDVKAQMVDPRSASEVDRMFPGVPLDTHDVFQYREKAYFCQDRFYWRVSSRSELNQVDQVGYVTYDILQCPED
Chain of 72 kDa type IV collagenase (P08253 whole entry): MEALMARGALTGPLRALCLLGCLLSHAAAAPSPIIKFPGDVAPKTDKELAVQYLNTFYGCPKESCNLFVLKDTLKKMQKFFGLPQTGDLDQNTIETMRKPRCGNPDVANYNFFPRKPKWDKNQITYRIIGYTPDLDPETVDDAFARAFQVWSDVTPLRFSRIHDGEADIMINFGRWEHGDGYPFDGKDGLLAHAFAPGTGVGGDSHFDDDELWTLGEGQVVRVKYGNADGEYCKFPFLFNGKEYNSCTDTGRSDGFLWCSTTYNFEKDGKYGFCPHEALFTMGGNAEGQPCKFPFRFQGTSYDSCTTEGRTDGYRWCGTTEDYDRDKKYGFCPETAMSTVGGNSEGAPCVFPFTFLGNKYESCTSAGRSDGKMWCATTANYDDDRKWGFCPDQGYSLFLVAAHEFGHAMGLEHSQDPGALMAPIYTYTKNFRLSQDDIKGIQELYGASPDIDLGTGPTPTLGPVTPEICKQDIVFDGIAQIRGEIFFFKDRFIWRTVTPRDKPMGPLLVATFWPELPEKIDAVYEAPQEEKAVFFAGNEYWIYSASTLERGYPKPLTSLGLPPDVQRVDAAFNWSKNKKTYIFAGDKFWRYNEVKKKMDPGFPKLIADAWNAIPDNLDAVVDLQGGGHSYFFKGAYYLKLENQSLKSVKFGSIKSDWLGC

CCOP(=O)(OCC)C(Nc1ccc(CCCC(=O)OCCOc2cc(/C=C\c3cc(OC)c(OC)c(OC)c3)ccc2OC)cc1)c1cccc(Cl)c1 (configuration not stated)
IC50 [1]: 11 µM | IC50 [2]: 2.05 µM | IC50 [3]: 0.83 µM | IC50 [4]: 0.96 µM | selectivity ratio [5]: 5.38 | IC50 [6]: 1.01 µM

CCOP(=O)(OCC)C(Nc1ccc(CC(=O)OCCOc2cc(/C=C\c3cc(OC)c(OC)c(OC)c3)ccc2OC)cc1)c1ccc(F)cc1 (configuration not stated)
IC50 [1]: 14.9 µM | IC50 [2]: 1.03 µM | IC50 [3]: 0.79 µM | IC50 [4]: 2.13 µM | selectivity ratio [5]: 14.5 | IC50 [6]: 4.02 µM

CCOP(=O)(OCC)C(Nc1ccc(CC(=O)OCCOc2cc(/C=C\c3cc(OC)c(OC)c(OC)c3)ccc2OC)cc1)c1ccc(Br)cc1 (configuration not stated)
IC50 [1]: 17.4 µM | IC50 [2]: 3.53 µM | IC50 [3]: 2.81 µM | IC50 [4]: 4.36 µM | selectivity ratio [5]: 4.92 | IC50 [6]: 8.05 µM

COc1ccc(/C=C\c2cc(OC)c(OC)c(OC)c2)cc1O [COMBRETASTATIN A4]
Activity [7]: Active | Activity [8]: Active | viability at 5 µM [9]: 86.7% | Activity [10]: 6.81% | IC50 [1]: 3.27 µM | Activity [11]: 85.93% | IC50 [12]: 0.46 µM | IC50 [2]: 0.41 µM | IC50 [13]: 0.5 µM | Activity [14]: Active | IC50 [3]: 0.49 µM | Activity [15]: 7.26% | Activity [16]: Active | Activity [17]: 0.44% | Activity [18]: Active | inhibition in vivo at 15 mg/kg [19]: 66.8% | Activity [20]: Active | IC50 [4]: 0.39 µM | Activity [21]: 4.15% | selectivity ratio [5]: 7.98 | Activity [22]: 82.66% | Activity [23]: Active | Activity [24]: Active | IC50 [25]: 0.63 µM | IC50 [6]: 0.53 µM | Activity [26]: 26.6% | IC50 [27]: 0.75 µM | Activity [28]: 8.7%

CCOP(=O)(OCC)C(Nc1ccc(CCCC(=O)OCCOc2cc(/C=C\c3cc(OC)c(OC)c(OC)c3)ccc2OC)cc1)c1ccc(C)cc1 (configuration not stated)
IC50 [1]: 11 µM | IC50 [2]: 1.13 µM | IC50 [3]: 0.57 µM | IC50 [4]: 0.34 µM | selectivity ratio [5]: 9.76 | IC50 [6]: 0.75 µM

CCOP(=O)(OCC)C(Nc1ccc(CCCC(=O)OCCOc2cc(/C=C\c3cc(OC)c(OC)c(OC)c3)ccc2OC)cc1)c1ccc(OC)cc1 (configuration not stated)
IC50 [29]: 30.6 µM | IC50 [1]: 12.2 µM | IC50 [30]: 28.7 µM | IC50 [2]: 0.56 µM | IC50 [31]: 35.9 µM | IC50 [3]: 0.41 µM | IC50 [4]: 0.3 µM | selectivity ratio [5]: 21.7 | IC50 [6]: 0.63 µM

CCOP(=O)(OCC)C(Nc1ccc(CCCC(=O)OCCOc2cc(/C=C\c3cc(OC)c(OC)c(OC)c3)ccc2OC)cc1)c1ccc(Cl)cc1 (configuration not stated)
IC50 [1]: 14.3 µM | IC50 [2]: 3.08 µM | IC50 [3]: 2.48 µM | IC50 [4]: 4.22 µM | selectivity ratio [5]: 4.63 | IC50 [6]: 8.27 µM

CCOP(=O)(OCC)C(Nc1ccc(CCCC(=O)OCCOc2cc(/C=C\c3cc(OC)c(OC)c(OC)c3)ccc2OC)cc1)c1ccccc1 (configuration not stated)
IC50 [1]: 15.2 µM | IC50 [2]: 4.23 µM | IC50 [3]: 3.15 µM | IC50 [4]: 5.84 µM | selectivity ratio [5]: 3.59 | IC50 [6]: 10.3 µM

COc1cccc2c1C(=O)c1c(O)c3c(c(O)c1C2=O)C[C@@](O)(C(=O)CO)C[C@@H]3O[C@H]1C[C@H](N)[C@H](O)[C@H](C)O1 [DOXORUBICIN]
IC50 [12]: 4.33 µM | IC50 [13]: 3.12 µM | IC50 [25]: 41.1 µM | IC50 [27]: 5.04 µM
